Source: patent US10323044B2, “Crystal of imidazo-oxazine, pharmaceutical composition containing said crystal, and method for producing said crystal” (TAIHO PHARMACEUTICAL CO., LTD., priority 2015, dated 2019)

Assay: Solid stability test (storage stability; powder X-ray diffraction and HPLC analog amount)
Assay type: physicochemical
Settings: 40° C. (hermetically sealed), six months, brown glass bottle
Procedure: Powder X-ray diffraction was performed by lightly pulverizing an appropriate amount of a test substance using an agate mortar as necessary, and measuring the test substance in accordance with the following test conditions.
The storage stability of crystal I of the imidazooxazine compound obtained in accordance with Example 1 was tested after six months of storage at 40° C.
Storage condition: 40° C. (hermetically sealed)
Measurement point: Six months
Container: Brown glass bottle
The powder X-ray diffraction of the sample after storage was measured using the method described above. Alternations in analog amount were analyzed by HPLC according to the following manner.
Method for preparing a sample solution: the sample was dissolved in 50% acetonitrile so that the concentration of the sample became 0.5 mg/mL.
Column: Acentis express C18, 4.6×150 mm, 2.7 μm,
Column temperature: 40° C.
Column flow rate: 1.5 mL/min
Mobile phase: A; 0.1% phosphate, B; acetonitrile

SMILES: C[C@]1(O)C[C@@](N)(c2ccc(-c3nc4n(c3-c3ccccc3)COc3ccncc3-4)cc2)C1 [crystal I, trans-3-amino-1-methyl-3-(4-(3-phenyl-5H-imidazo[1,2-c]pyrido[3,4-e][1,3]oxazin-2-yl)phenyl)cyclobutanol]
- changes in powder X-ray diffraction pattern after storage: not observed
- amount of analogs (HPLC) after storage (HPLC UV 210 nm): not increased
